# Laboratory results published in patent US4191780A, “Bromhexine derivatives and process for making same” (priority 1978, dated 1980).
# How the values were obtained:
# [1] = Eight-day toxicity studies in mice, lethality (i.p.); format: in vivo; conditions: for Total number of deaths: 8 days
# Description: Eight-day toxicity studies of IFT 1026 and Bromhexine in mice.
# [2] = Long-term toxicity in rats (16 weeks): mean body weight; format: in vivo
# Description: Effect of daily oral administration of various doses of
# IFT 1026 and Bromhexine on mean body weight of rats.
# [3] = Long-term toxicity in rats: hematological parameters; format: in vivo, rat; conditions: daily oral Bromhexine 250 mg/kg, IFT 1026 350 mg/kg
# Protocol: The hematological and biochemical values relating to the groups under treament with the above reported doses are shown in Tables Nos. 4 and 5. These values are virtually the same for both treated and control animals.
# Effect of daily oral administration of Bromhexine 250 mg/kg
# and IFT 1026 350 mg/kg on the hematological parameters in […]
# [4] = Long-term toxicity in rats: biochemical parameters; format: in vivo, rat; conditions: daily oral 250 mg/kg Bromhexine, 350 mg/kg IFT 1026
# [5] = Bromsulphtalein (BSP) clearance in rats treated with the lower dose; format: in vivo; conditions: 30 min after 50 mg/kg BSP i.v., lower dose of drug
# Protocol: The possibility to use BSP for the diagnosis of lesions in liver parenchyma is well known. Bromsulphtalein (BSP) clearance was made according to Carpi and Parenti (Carpi, C. and M. A. Parenti, Il Farmaco, Ed. Pr. vol. 17, page 45, 1962). Thirty minutes after the i.v. administration of 50 mg/kg BSP to control rats, the mean plasma level of the dyestuff is 80±12 mcg/ml.
# % of rate showing BSP plasma levels greater than 80 mcg/ml
# (control values) and 160 mcg/ml (two-fold control values)
# [6] = Long-term toxicity in rats: organ weights at necropsy; format: in vivo; conditions: fresh weight, daily oral 250 mg/kg Bromhexine, 350 mg/kg IFT 1026
# Protocol: Effect of daily oral administration of 250 mg/kg Bromhexine and 350 mg/kg
# organ weights of rats, expressed as grams of fresh weight.
# [7] = Long-term toxicity in rats: mortality, pathology and general state; conditions: rat, in vivo
# Protocol: Long-term toxicity (16 weeks) of IFT 1026 is tested in comparison to the parent compound (Bromhexine).
# [8] = tested on: Pain induced by a chemical stimulus; experiment: Siegmund Test: pain induced by a chemical stimulus (acetic acid writhing); format: in vivo, mice; conditions: mouse, 300 mg/kg oral
# Protocol: (§1) Two test methods are used for establishing the action of Bromhexine and IFT 1026 on noci-ceptive stimuli in mice.
# (§2) (a) Pain induced by a chemical stimulus according to the method of Siegmund (Siegmund E., Cadmier, R., and Lu, G. Proc. Soc. exp. Biol. N.Y. 95, 729--1957). The mice distributed at random into groups of 10 animals, are deprived of solid food for the 18-hour period prior to the test. […] Thirty minutes after treatment the mice are injected i.p. with 0.1 ml/10 g of a 1.5% acetic acid solution. The writhing is recorded for a 20 min. period following this i.p. injection.
# [9] = tested on: Pain induced by a physical stimulation; experiment: Hot-plate Test (Eddy and Leimbach): pain induced by a physical stimulation; format: in vivo, mice; conditions: mouse, 300 mg/kg oral, plate at 57° C.
# Protocol: as §1
# (§3) (b) Pain induced by a physical stimulation according to the hot-plate test technique by Eddy and Leimbach (Eddy, N. B. and Leimbach, O., J. Pharmacol. exp.Ther. 107, 383--1953). The temperature of the plate was kept at 57° C. Groups of 12 mice are treated as described under (a) above. The reaction times are measured 15 min. before treatment (Ro) and 4 times after the administration (every 15 min). Only the maximal response is taken into account (Rmax).
# [10] = tested on: Cough elicited by 15% citric acid spray; experiment: Antitussive activity in mice, citric acid spray cough; format: in vivo; conditions: Mus musculus, oral, 1 hour after administration, confidence limits P = 0.05
# Protocol: (§4) (6) Antitussive effect in Guinea-pigs and mice
# (§5) Cough is elicited by 15% citric acid spray in both species, according to the method by Harsany et al. (Boll. Chim. Farm. 112, 691, 1973). The effect was tested 1 hour after oral administration and 30 min. after intraperitoneal application of the antitussive agents on mice and Guinea-pigs respectively.
# (§6) ED50 values of the drugs are computed by the method of Litchfield and Wilcoxon (Litchfield, J. T. Jr., and Wilcoxon F., J. Pharmacol. exp. Ther. 96,99--1949).
# [11] = tested on: Cough elicited by 15% citric acid spray; experiment: Antitussive activity in Guinea-pigs, citric acid spray cough; format: in vivo; conditions: Cavia porcellus, ip, 0.5 h, intraperitoneal, 30 min. after application, confidence limits P = 0.05
# Protocol: as §4, §5, §6
# [12] = tested on: noci-ceptive stimuli; experiment: Study of analgesic action on mice (both tests); format: in vivo; conditions: 300 mg/kg oral
# Protocol: as §1, §2, §3
smiles,measurement,setting,value
"CN(Cc1cc(Br)cc(Br)c1N)C1CCCCC1 [Bromhexine, N-cyclohexyl-N-methyl-2-(2-amino-3,5-dibromo)benzylammonium chloride]",Number of deaths at day 3,[1]; daily dose 300 mg/k,1
same,Number of deaths at day 6,[1]; daily dose 300 mg/k,1
same,Total number of deaths,[1]; daily dose 300 mg/k,2/10
same,Number of deaths at day 3,[1]; daily dose 600 mg/k,1
same,Number of deaths at day 5,[1]; daily dose 600 mg/k,1
same,Number of deaths at day 6,[1]; daily dose 600 mg/k,1
same,Number of deaths at day 7,[1]; daily dose 600 mg/k,1
same,Number of deaths at day 8,[1]; daily dose 600 mg/k,1
same,Total number of deaths,[1]; daily dose 600 mg/k,5/10
same,"body weight, mean ± SE","[2]; females, 50 mg/kg daily oral, 0 days",110 ± 5 g
same,"body weight, mean ± SE","[2]; females, 50 mg/kg daily oral, 21 days",174 ± 2 g
same,"body weight, mean ± SE","[2]; females, 50 mg/kg daily oral, 45 days",217 ± 4 g
same,"body weight, mean ± SE","[2]; females, 50 mg/kg daily oral, 60 days",229 ± 4 g
same,"body weight, mean ± SE","[2]; females, 250 mg/kg daily oral, 0 days",109 ± 6 g
same,"body weight, mean ± SE","[2]; females, 250 mg/kg daily oral, 21 days",158 ± 5 g
same,"body weight, mean ± SE","[2]; females, 250 mg/kg daily oral, 45 days",206 ± 4 g
same,"body weight, mean ± SE","[2]; females, 250 mg/kg daily oral, 60 days",230 ± 3 g
same,"body weight, mean ± SE","[2]; females, 1000 mg/kg daily oral, 0 days",117 ± 6 g
same,"body weight, mean ± SE","[2]; females, 1000 mg/kg daily oral, 21 days",147 ± 13 g
same,"body weight, mean ± SE","[2]; females, 1000 mg/kg daily oral, 45 days",157 ± 7 g
same,"body weight, mean ± SE","[2]; females, 1000 mg/kg daily oral, 60 days",188 ± 12 g
same,"body weight, mean ± SE","[2]; males, 50 mg/kg daily oral, 0 days",115 ± 9 g
same,"body weight, mean ± SE","[2]; males, 50 mg/kg daily oral, 21 days",225 ± 6 g
same,"body weight, mean ± SE","[2]; males, 50 mg/kg daily oral, 45 days",295 ± 7 g
same,"body weight, mean ± SE","[2]; males, 50 mg/kg daily oral, 60 days",365 ± 7 g
same,"body weight, mean ± SE","[2]; males, 250 mg/kg daily oral, 0 days",118 ± 12 g
same,"body weight, mean ± SE","[2]; males, 250 mg/kg daily oral, 21 days",218 ± 7 g
same,"body weight, mean ± SE","[2]; males, 250 mg/kg daily oral, 45 days",285 ± 8 g
same,"body weight, mean ± SE","[2]; males, 250 mg/kg daily oral, 60 days",355 ± 9 g
same,"body weight, mean ± SE","[2]; males, 1000 mg/kg daily oral, 0 days",110 ± 7 g
same,"body weight, mean ± SE","[2]; males, 1000 mg/kg daily oral, 21 days",180 ± 9 g
same,"body weight, mean ± SE","[2]; males, 1000 mg/kg daily oral, 45 days",250 ± 8 g
same,"body weight, mean ± SE","[2]; males, 1000 mg/kg daily oral, 60 days",290 ± 12 g
same,variations in the body weights versus control group,"[2]; rats, exception: Bromhexine 1000 mg/kg/day",lower values than their control group
same,"RBC, mean ± SE",[3]; females,752 ± 37 10^6 /ml
same,"WBC, mean ± SE",[3]; females,132 ± 5 10^2 /ml
same,"RBC, mean ± SE",[3]; males,774 ± 63 10^6 /ml
same,"WBC, mean ± SE",[3]; males,168 ± 20 10^2 /ml
same,"A/G ratio (Albumin/Globulin), mean ± SE",[4]; females,2.6 ± 0.1
same,"BUN, mean ± SE",[4]; females,44.9 ± 4 mg %
same,"GLUCOSE, mean ± SE",[4]; females,77.1 ± 9 mg %
same,"SGOT, mean ± SE",[4]; females,24.1 ± 0.5 Units/ml
same,"SGPT, mean ± SE",[4]; females,12.6 ± 0.3 Units/ml
same,"TOTAL PROTEIN, mean ± SE",[4]; females,25.8 ± 1.1 mg/mL
same,"A/G ratio (Albumin/Globulin), mean ± SE",[4]; males,2.4 ± 0.2
same,"BUN, mean ± SE",[4]; males,34.5 ± 3 mg %
same,"GLUCOSE, mean ± SE",[4]; males,88.5 ± 6 mg %
same,"SGOT, mean ± SE",[4]; males,24.8 ± 0.5 Units/ml
same,"SGPT, mean ± SE",[4]; males,12.7 ± 0.15 Units/ml
same,"TOTAL PROTEIN, mean ± SE",[4]; males,27.1 ± 2.5 mg/mL
same,% showing BSP plasma levels >160 mcg/ml,"[5]; X^2 = 0.43, N.S.",12%
same,"rats showing BSP plasma levels >160 mcg/ml, number/tested","[5]; X^2 = 0.43, N.S.",2/17
same,% showing BSP plasma levels >80 mcg/ml,"[5]; X^2 = 0.7, N.S.",41%
same,"rats showing BSP plasma levels >80 mcg/ml, number/tested","[5]; X^2 = 0.7, N.S.",7/17
same,"organ weight, Adrenal glands",[6]; females,4.7 ± 0.1 10^-2 grams
same,"organ weight, Brain",[6]; females,19.7 ± 0.5 10^-1 grams
same,"organ weight, Heart",[6]; females,8.3 ± 0.2 10^-1 grams
same,"organ weight, Kidneys",[6]; females,18.8 ± 0.9 10^-1 grams
same,"organ weight, Liver",[6]; females,10.5 ± 0.2 grams
same,"organ weight, Lungs",[6]; females,14.4 ± 0.9 10^-1 grams
same,"organ weight, Spleen",[6]; females,7.9 ± 0.2 10^-1 grams
same,"organ weight, Adrenal glands",[6]; males,3.8 ± 0.2 10^-2 grams
same,"organ weight, Brain",[6]; males,14 ± 1 10^-1 grams
same,"organ weight, Heart",[6]; males,8.8 ± 1.4 10^-1 grams
same,"organ weight, Kidneys",[6]; males,18.4 ± 0.5 10^-1 grams
same,"organ weight, Liver",[6]; males,10.6 ± 0.2 grams
same,"organ weight, Lungs",[6]; males,11.6 ± 1.7 10^-1 grams
same,"organ weight, Spleen",[6]; males,6 ± 0.6 10^-1 grams
same,animals that died during the study,[7],Five
same,rats displaying liver steatosis,[7],Four
same,"Siegmund Test, number of writhings for a 20 min. period, mean ± SE",[8],32 ± 3
same,"Hot-plate Test (R max/Ro), mean ± SE",[9],1.5 ± 0.18
same,ED50,[10],194 mg/kg
same,ED50,[11],143 mg/kg
same,Responses to algogenic stimuli,[12],not suppressed
